From patent US9828375B2, “4-position substituted pyrazolopyrimidine derivative, and use thereof in drug preparation” (Guangxi Wuzhou Pharmaceuticals (Group) Co., Ltd., priority 2012, dated 2017)
Like-named read-outs stand apart in the source and are kept apart here.

What was measured:
[1] = test system: inter segmental blood vessels of transgenic zebrafish (FLK1-GFP); experiment: Angiogenesis inhibition activity test in transgenic zebrafish (FLK1-GFP); format: in vivo; conditions: concentration of 1 ug/mL, compared with the control group
Description: The new blood vessel inhibition activity of the test compounds was expressed by the inhibition degree of the test compounds for the inter segmental blood vessels of zebrafish at concentrations of 10 ug/mL, 3 ug/mL and 1 ug/mL.
Acquisition of zebrafish embryos: The zebrafish used by this laboratory was fluorescent transgenic zebrafish (FLK1: GFP). Refer to Westerfield method for breeding and cultivation of zebrafish. The day before spawns were obtained, male and female zebrafish were paired at the ratio of 1:1. On the second day, the male and female zebrafish naturally mated and spawned at a temperature of about 28° C. under sufficient illumination. Enough zebrafish embryos were collected, washed, placed into embryo culture media, and put into a 28° C. incubator for culture. The survival of embryos was identified by morphological and phylogenetic standards, and dead embryos were white and taken out timely to prevent deterioration of water quality. […]
Result observation: Thirty one hours after the zebrafish embryos were fertilized, spawns were taken out and hatched zebrafish was peeled off; and then the hatched zebrafish was put onto slide, 1‰ tricaine solution was added to narcotize the fish body, and 1.5% methylcellulose was used to fix the fish body; and the inter segmental vessels (ISV) were observed, counted and photographed under a fluorescence microscope. […]

[2] = test system: human leukemia cell line MV4-11; conditions: for in vivo tumor growth inhibition effect: oral intragastric q.d., MV4-11 tumors 400-500 mm^3 at start; for inhibition effect compared with positive control sorafenib: sorafenib 3 mg/kg q.d., MV4-11 model
Description: The cell line used was human leukemia cell line MV4-11. The drug (Sorafenib) undergoing anti-leukemia clinical trial was used as the positive control.
NOD-SCID mice at age of 6 to 8 weeks were used, and MV4-11 cells were inoculated at the subcutaneous posterior ribs of the mice at a concentration of 1×10^7/0.1 mL/mouse; after the tumors grew to 400-500 mm^3 (for about 20 days), mice (n=6) were grouped and subject to oral intragastric administration.
(§2) Observation targets: Mouse weight and long and short diameters of tumor were measured every 3 days, and tumor volume (length×width^2×0.52) was calculated to observe for diarrhea, convulsion, rash, significant weight loss and other reactions.

[3] = test system: human glioma cell line U251; experiment: In vivo anti-tumor experiment, nude mouse-subcutaneous human glioma U251 model; design: species or system BALB/C nude mice
Source text: (§1) The cell lines used were human colorectal carcinoma cell line HT29 and human glioma cell line U251.

[4] = test system: human colorectal carcinoma cell line HT29; experiment: In vivo anti-tumor experiment, nude mouse-subcutaneous human colorectal carcinoma HT29 model; design: species or system BALB/C nude mice
Source text: as §1

[5] = test system: human malignant melanoma cell line WM2664
Description: The purpose of the experiment was to test the in vivo anti-tumor effect of the compound of the invention. […] The cell line used was human malignant melanoma cell line WM2664. The drug (sorafenib) undergoing anti-melanoma clinical trial was used as the positive control.
BALB/C nude mice at age of 6 to 8 weeks were used, and WM2664 cells were inoculated at the subcutaneous posterior ribs of the mice at a concentration of 5×106/0.1 mL/mouse; after the tumors grew to 200-300 mm^3 (for about 15 days), mice (n=6) were grouped and subject to oral intragastric administration.
as §2

[6] = daily dose of 30 mg/kg or above, oral
[7] = nude mice, 15-60 mg/kg q.d. oral

Compound | angiogenesis inhibition for FLK1 transgenic zebrafish [1] | in vivo tumor growth inhibition effect ([2]; daily dose of 1 mg/kg) | in vivo tumor growth inhibition effect ([2]; daily dose of 3 mg/kg or above) | inhibition effect compared with positive control sorafenib [2] | in vivo tumor growth inhibition effect [3, 6] | weight loss, rash, diarrhea and other adverse reactions during administration [3, 7] | in vivo tumor growth inhibition effect [4, 6] | weight loss, rash, diarrhea and other adverse reactions during administration [4, 7] | effect compared with sorafenib ([5]; 4a-2 25 mg/kg/d vs sorafenib at daily dose of 50 mg/kg) | in vivo tumor growth inhibition effect ([5]; dose of 25 mg/kg/d, oral, WM2664 (BRAF V600D) model)
CC(C)(C)c1cc(NC(=O)Nc2ccc(Oc3ncnc4[nH]ncc34)c(F)c2)no1 [4a-31] | inhibit angiogenesis of zebrafish very well | obviously inhibit tumor growth | extinct tumor completely | superior to the positive control (sorafenib) |  |  |  |  |  | 
O=C(Nc1ccc(Oc2ncnc3[nH]ncc23)cc1)Nc1cccc(C(F)(F)F)c1 [4a-6] | inhibit angiogenesis of zebrafish very well |  |  |  | obviously inhibit tumor growth | not found | obviously inhibit tumor growth | not found |  | 
O=C(Nc1ccc(Oc2ncnc3[nH]ncc23)cc1)Nc1ccc(Cl)c(C(F)(F)F)c1 [4a-2] |  |  | obviously inhibit tumor growth or extinct tumor completely | superior to the positive control (sorafenib) |  |  |  |  | more effective than sorafenib | obviously inhibit tumor growth
